According to ChEMBL document CHEMBL1151449, “In vitro activity of DC-159a, a new broad-spectrum fluoroquinolone, compared with that of other agents against drug-susceptible and -resistant pneumococci” (2008):
Converted amounts (≈) assume the structure as drawn.

Key:
Assay type in all cases: functional
[1] = test system: Streptococcus pneumoniae; experiment: (§1) Antibacterial activity against penicillin-, macrolide- and quinolone-susceptible Streptococcus pneumoniae HMC 63 harboring S81F mutation in quinolone-resistant determining regions of GyrA gene, D83Y mutation in QRDR of ParC gene and I460V mutation in QRDR of ParE gene after 34 passages with gemifloxacin measured after 10 daily antibiotic-free subculturing by multi-step resistance selection technique
[2] = test system: Streptococcus pneumoniae; experiment: Antibacterial activity against Streptococcus pneumoniae HMC 1070 harboring S81F mutation in quinolone-resistant determining regions of GyrA gene, D83N mutation in QRDR of ParC gene and I460V mutation in QRDR of ParE gene by agar dilution method
[3] = test system: Streptococcus pneumoniae; experiment: Antibacterial activity against macrolide-, quinolone-susceptible and penicillin-intermediate Streptococcus pneumoniae HMC 99 after 50 passages by broth microdilution method
[4] = test system: Streptococcus pneumoniae; experiment: Antibacterial activity against penicillin-resistant and quinolone-susceptible Streptococcus pneumoniae HMC 3583 expressing mefA by broth microdilution method
[5] = test system: Streptococcus pneumoniae; experiment: (§2) Antibacterial activity against macrolide-, quinolone-susceptible and penicillin-intermediate Streptococcus pneumoniae HMC 100 harboring S81Y and S79Y mutation in quinolone-resistant determining regions of GyrA and ParC genes respectively after 42 passages with levofloxacin measured after 10 daily antibiotic-free subculturing by multi-step resistance selection technique
[6] = test system: Streptococcus pneumoniae; experiment: Antibacterial activity against quinolone-susceptible Streptococcus pneumoniae ATCC 49619 by agar dilution method
[7] = test system: Streptococcus pneumoniae; experiment: Antibacterial activity against penicillin-susceptible Streptococcus pneumoniae ATCC 49619 by agar dilution method
[8] = test system: Streptococcus pneumoniae; experiment: Antibacterial activity against Streptococcus pneumoniae HMC 1072 harboring S81F mutation in quinolone-resistant determining regions of GyrA gene, S79Y mutation in QRDR of ParC gene and I460V mutation in QRDR of ParE gene by agar dilution method
[9] = test system: Streptococcus pneumoniae; experiment: as §1, with “penicillin-resistant” for “penicillin-, macrolide-”, “3583 expressing mefA and” for “63”, “D83N” for “D83Y”, “49” for “34”, “DC-159a” for “gemifloxacin”
[10] = test system: Streptococcus pneumoniae; experiment: Antibacterial activity against Streptococcus pneumoniae HMC 1071 harboring S81F mutation in quinolone-resistant determining regions of GyrA gene and S79F, K137N mutation in QRDR of ParC gene by agar dilution method
[11] = test system: Streptococcus pneumoniae; experiment: Antibacterial activity against penicillin- and quinolone-susceptible Streptococcus pneumoniae HMC 5055 expressing mefA after 50 passages by broth microdilution method
[12] = test system: Streptococcus pneumoniae; experiment: Antibacterial activity against penicillin-susceptible, quinolone-resistant Streptococcus pneumoniae 1072 expressing ermB and harboring S81F mutation in quinolone-resistant determining regions of GyrA gene, S79Y mutation in QRDR of ParC gene and I460V mutation in QRDR of ParE gene by broth microdilution method
[13] = test system: Streptococcus pneumoniae; experiment: Antibacterial activity against Streptococcus pneumoniae HMC 2538 harboring S81Y mutation in quinolone-resistant determining regions of GyrA gene, S79F, K137N mutation in QRDR of ParC gene and I460V mutation in QRDR of ParE gene showing efflux to ciprofloxacin, levofloxacin, gatifloxacin by agar dilution method
[14] = test system: Streptococcus pneumoniae; experiment: as §1, with “penicillin-resistant” for “penicillin-, macrolide-”, “228 expressing ermB and” for “63”, “S79Y” for “D83Y”, “38” for “34”, “gatifloxacin” for “gemifloxacin”
[15] = test system: Streptococcus pneumoniae; experiment: as §1, with “macrolide-susceptible” for “macrolide-”, “quinolone-resistant” for “quinolone-susceptible”, “1074” for “63”, “S81F, E85K” for “S81F”, “S79F” for “D83Y”, “27” for “34”
[16] = test system: Streptococcus pneumoniae; experiment: (§3) Antibacterial activity against Streptococcus pneumoniae HMC 1078 harboring S81F mutation in quinolone-resistant determining regions of GyrA gene, S79F mutation in QRDR of ParC gene and I460V mutation in QRDR of ParE gene by agar dilution method
[17] = test system: Streptococcus pneumoniae; experiment: Antibacterial activity against Streptococcus pneumoniae HMC 1076 harboring S81F mutation in quinolone-resistant determining regions of GyrA gene, D83N mutation in QRDR of ParC gene and I460V mutation in QRDR of ParE gene by agar dilution method
[18] = test system: Streptococcus pneumoniae; experiment: as §3, with “against penicillin-, macrolide-susceptible and quinolone-resistant” for “against”, “1074” for “1078”, “broth microdilution” for “agar dilution”
[19] = test system: Streptococcus pneumoniae; experiment: as §2, with “S81Y” for “S81Y and S79Y”, “gene” for “and ParC genes respectively”, “22” for “42”, “moxifloxacin” for “levofloxacin”
[20] = test system: Streptococcus pneumoniae; experiment: Antibacterial activity against Streptococcus pneumoniae HMC 4026 harboring S81Y mutation in quinolone-resistant determining regions of GyrA gene, S79F, K137N mutation in QRDR of ParC gene and I460V mutation in QRDR of ParE gene by agar dilution method
[21] = test system: Streptococcus pneumoniae; experiment: Antibacterial activity against penicillin-, macrolide- and quinolone-susceptible Streptococcus pneumoniae HMC 63 by broth microdilution method
[22] = test system: Streptococcus pneumoniae; experiment: Antibacterial activity against Streptococcus pneumoniae HMC 1058 harboring S79F, K137N mutation in quinolone-resistant determining regions of ParC gene and 460V mutation in QRDR of ParE gene by agar dilution method
[23] = test system: Streptococcus pneumoniae; experiment: Antibacterial activity against Streptococcus pneumoniae HMC 2536 harboring S81Y mutation in quinolone-resistant determining regions of GyrA gene, S79F, K137N mutation in QRDR of ParC gene and I460V mutation in QRDR of ParE gene by agar dilution method
[24] = test system: Streptococcus pneumoniae; experiment: Antibacterial activity against Streptococcus pneumoniae HMC 1077 harboring S81Y and S79F mutation in quinolone-resistant determining regions of GyrA and ParC genes respectively by agar dilution method
[25] = test system: Streptococcus pneumoniae; experiment: Antibacterial activity against macrolide-, quinolone-susceptible and penicillin-intermediate Streptococcus pneumoniae HMC 100 by broth microdilution method
[26] = test system: Streptococcus pneumoniae; experiment: Antibacterial activity against penicillin-resistant Streptococcus pneumoniae […] by agar dilution method
[27] = test system: Streptococcus pneumoniae; experiment: Antibacterial activity against Streptococcus pneumoniae HMC 1139 harboring S81F mutation in quinolone-resistant determining regions of GyrA gene, S79F, K137N mutation in QRDR of ParC gene and I460V mutation in QRDR of ParE gene by agar dilution method
[28] = test system: Streptococcus pneumoniae; experiment: Antibacterial activity against penicillin-resistant and quinolone-susceptible Streptococcus pneumoniae HMC 3583 expressing mefA and harboring S81F mutation in quinolone-resistant determining regions of GyrA gene and I460V, D435N mutation in QRDR of ParE gene after 46 passages with gatifloxacin measured after 10 daily antibiotic-free subculturing by multi-step resistance selection technique
[29] = test system: Streptococcus pneumoniae; experiment: as §1, with “penicillin-resistant” for “penicillin-, macrolide-”, “228 expressing ermB and” for “63”, “D83N” for “D83Y”, “28” for “34”, “DC-159a” for “gemifloxacin”
[30] = test system: Streptococcus pneumoniae; experiment: Antibacterial activity against Streptococcus pneumoniae HMC 2527 harboring S81Y mutation in quinolone-resistant determining regions of GyrA gene, S79F, K137N mutation in QRDR of ParC gene and I460V mutation in QRDR of ParE gene by agar dilution method
[31] = test system: Streptococcus pneumoniae; experiment: Antibacterial activity against Streptococcus pneumoniae HMC 1146 harboring S81F mutation in quinolone-resistant determining regions of GyrA gene, and D435N mutation in QRDR of ParE gene by agar dilution method

Structure (SMILES) | MIC [1] [µg/mL] | MIC [2] [µg/mL] | MIC [5] [µg/mL] | MIC [8] [µg/mL] | MIC [9] [µg/mL] | MIC [10] [µg/mL] | MIC [11] [µg/mL] | MIC [12] [µg/mL] | MIC [13] [µg/mL] | MIC [14] [µg/mL] | MIC [15] [µg/mL] | MIC [16] [µg/mL] | MIC [17] [µg/mL] | MIC [19] [µg/mL] | MIC [20] [µg/mL] | MIC [21] [µg/mL] | MIC [22] [µg/mL] | MIC [23] [µg/mL] | MIC [24] [µg/mL] | MIC [25] [µg/mL] | further results
COc1c(N2CC3(CC3)[C@](C)(N)C2)c(F)cc2c(=O)c(C(=O)O)cn([C@@H]3C[C@@H]3F)c12.O | 1 | 1 | 1 | 1 | 1 | 1 | 0.125 | 1 | 1 | 1 | 4 | 1 | 0.5 | 0.5 | 1 | 0.12 | 0.5 | 1 | 1 | 0.12 | MIC [3]: 0.125 µg/mL; MIC [4]: 0.12 µg/mL; MIC50 [6]: 0.12 µg/mL; MIC90 [6]: 0.12 µg/mL; MIC50 [7]: 0.12 µg/mL; MIC90 [7]: 0.25 µg/mL; MIC [18]: 1 µg/mL; MIC50 [26]: 0.12 µg/mL; MIC90 [26]: 0.5 µg/mL; MIC [27]: 1 µg/mL; MIC [28]: 1 µg/mL; MIC [29]: 1 µg/mL; MIC [30]: 1 µg/mL; MIC [31]: 1 µg/mL
COc1c(N2CCNC(C)C2)c(F)cc2c(=O)c(C(=O)O)cn(C3CC3)c12 (configuration not stated) [GATIFLOXACIN] | 8 (≈ 21.3 µM) | 4 (≈ 10.7 µM) | 8 (≈ 21.3 µM) | 8 (≈ 21.3 µM) | 4 (≈ 10.7 µM) | 8 (≈ 21.3 µM) | 0.5 (≈ 1.33 µM) | 8 (≈ 21.3 µM) | 8 (≈ 21.3 µM) | 4 (≈ 10.7 µM) | 16 (≈ 42.6 µM) | 8 (≈ 21.3 µM) | 4 (≈ 10.7 µM) | 4 (≈ 10.7 µM) | 16 (≈ 42.6 µM) | 0.5 (≈ 1.33 µM) | 2 (≈ 5.33 µM) | 16 (≈ 42.6 µM) | 8 (≈ 21.3 µM) | 0.5 (≈ 1.33 µM) | MIC [3]: 0.5 µg/mL (≈ 1.33 µM); MIC [4]: 0.25 µg/mL (≈ 0.666 µM); MIC50 [6]: 0.5 µg/mL (≈ 1.33 µM); MIC90 [6]: 0.5 µg/mL (≈ 1.33 µM); MIC50 [7]: 0.5 µg/mL (≈ 1.33 µM); MIC90 [7]: 1 µg/mL (≈ 2.66 µM); MIC [18]: 4 µg/mL (≈ 10.7 µM); MIC50 [26]: 0.5 µg/mL (≈ 1.33 µM); MIC90 [26]: 4 µg/mL (≈ 10.7 µM); MIC [27]: 8 µg/mL (≈ 21.3 µM); MIC [28]: 8 µg/mL (≈ 21.3 µM); MIC [29]: 4 µg/mL (≈ 10.7 µM); MIC [30]: 16 µg/mL (≈ 42.6 µM); MIC [31]: 4 µg/mL (≈ 10.7 µM)
CO/N=C1\CN(c2nc3c(cc2F)c(=O)c(C(=O)O)cn3C2CC2)CC1CN (configuration not stated) [GEMIFLOXACIN] | 0.5 (≈ 1.28 µM) | 0.25 (≈ 0.642 µM) | 0.5 (≈ 1.28 µM) | 0.5 (≈ 1.28 µM) | 4 (≈ 10.3 µM) | 0.5 (≈ 1.28 µM) | 0.06 (≈ 0.154 µM) | 0.5 (≈ 1.28 µM) | 0.25 (≈ 0.642 µM) | > 64 | 2 (≈ 5.14 µM) | 0.5 (≈ 1.28 µM) | 0.5 (≈ 1.28 µM) | 0.25 (≈ 0.642 µM) | 0.5 (≈ 1.28 µM) | 0.06 (≈ 0.154 µM) | 0.125 (≈ 0.321 µM) | 0.125 (≈ 0.321 µM) | 0.25 (≈ 0.642 µM) | 0.06 (≈ 0.154 µM) | MIC [3]: 0.125 µg/mL (≈ 0.321 µM); MIC [4]: 0.03 µg/mL (≈ 0.077 µM); MIC50 [6]: 0.03 µg/mL (≈ 0.077 µM); MIC90 [6]: 0.06 µg/mL (≈ 0.154 µM); MIC50 [7]: 0.03 µg/mL (≈ 0.077 µM); MIC90 [7]: 0.12 µg/mL (≈ 0.308 µM); MIC [18]: 0.25 µg/mL (≈ 0.642 µM); MIC50 [26]: 0.03 µg/mL (≈ 0.077 µM); MIC90 [26]: 0.25 µg/mL (≈ 0.642 µM); MIC [27]: 0.25 µg/mL (≈ 0.642 µM); MIC [28]: 8 µg/mL (≈ 20.5 µM); MIC [29]: 1 µg/mL (≈ 2.57 µM); MIC [30]: 0.25 µg/mL (≈ 0.642 µM); MIC [31]: 0.5 µg/mL (≈ 1.28 µM)
COc1c(N2C[C@@H]3CCCN[C@@H]3C2)c(F)cc2c(=O)c(C(=O)O)cn(C3CC3)c12 [MOXIFLOXACIN] | 4 (≈ 9.96 µM) | 4 (≈ 9.96 µM) | 4 (≈ 9.96 µM) | 4 (≈ 9.96 µM) | 2 (≈ 4.98 µM) | 4 (≈ 9.96 µM) | 0.125 (≈ 0.311 µM) | 4 (≈ 9.96 µM) | 2 (≈ 4.98 µM) | 4 (≈ 9.96 µM) | 16 (≈ 39.9 µM) | 4 (≈ 9.96 µM) | 2 (≈ 4.98 µM) | 1 (≈ 2.49 µM) | 4 (≈ 9.96 µM) | 0.25 (≈ 0.623 µM) | 0.5 (≈ 1.25 µM) | 4 (≈ 9.96 µM) | 4 (≈ 9.96 µM) | 0.25 (≈ 0.623 µM) | MIC [27]: 4 µg/mL (≈ 9.96 µM); MIC [28]: 4 µg/mL (≈ 9.96 µM); MIC [29]: 2 µg/mL (≈ 4.98 µM); MIC [30]: 4 µg/mL (≈ 9.96 µM); MIC [31]: 2 µg/mL (≈ 4.98 µM)
